Assay results from paper PMC10666288, “Unveiling the Catalytic Mechanism of a Processive Metalloaminopeptidase” (Biochemistry, 2023).

What was measured:
[1] = molecular target: T1, PaPepA (Pseudomonas aeruginosa, UniProt Q02RY8); assay: Pre-steady-state stopped-flow kinetics with global fit; assay type: biochemical; design: GG stays after cleavage) (N); made in house; host or cells: E. coli BL21(DE3)
Experimental: An Applied Photophysics SX20 stopped-flow spectrofluorimeter was used to perform kinetic measurements under pre-steady-state conditions. The instrument was equipped with a xenon lamp, a 5 μL mixing cell, and a circulating water bath to maintain constant temperature. All reactions were carried out in 100 mM HEPES (pH 8.0) and 50 mM KCl at 25 °C. Enzyme and metal ions were kept in one syringe, while the other substrate (Leu-pNA or Leu-AMC) was kept in the second syringe. The reaction was triggered by rapid mixing of 55 μL from each syringe. Three traces with 10,000 points per trace were collected per experiment.
For absorbance measurements, product formation was monitored by reading the pNA absorbance at 405 nm (5 mm path length). Multiple turnover rates were measured in the presence of saturating concentrations of both metal and Leu-pNA. PaPepA was present at 1 or 10 μM, MnCl2 was present at 3 mM, and Leu-pNA was present at 250 μM. For fluorescence measurements, a path length of 1 mm was used. Reactions were followed by monitoring the appearance of a 7-amino-4-methylcoumarin (AMC) fluorophore following PaPepA-catalyzed breakdown of Leu-AMC. An excitation wavelength of 341 nm was used with a 400 nm cutoff filter for the emission. Slits were 1 nm for excitation and 2 nm for emission.
Experiments under single turnover conditions monitored fluorescence change with a detector voltage of 300 V, 0.1 μM Leu-AMC, 1.5 mM MnCl2, and varying PaPepA (0.5, 1, 2, 4, 8, 16, or 32 μM). Experiments under multiple turnover conditions monitored fluorescence change with a detector voltage of 250 V, 50 μM Leu-AMC, 1.2 μM PaPepA and varying concentrations of MnCl2 (0.2, 0.4, 0.6, 1.2, 2.4, 6, 9, 12, 18, 24, 60, 120, 1200, or 3600 μM).
Calibration curves of known concentrations of AMC were performed at detector voltages of 250 and 300 V. STO and MTO curves were divided by the slope of these calibration curves to convert the change in fluorescence observed to the concentration of AMC produced.
Pre-steady-state data were imported into KinTek Global Explorer and fit to linear or single-exponential equations using the aFit function to obtain standard deviation estimates. A kinetic model with five steps was considered, and rate constants and outputs were fitted according to this model. Initial estimates for rate constants were based on kcat and KM values. The FitSpace Editor was employed to determine confidence intervals for each of the rate constants. More details including model fitted and parameters used are available in the Supporting Information.
Supporting information note 4: Kintek Global Explorer fitting of stopped flow data Both MTO and STO pre-steady-state data were fit according to the mode described in Figure 4A with scaling factors for each fluorescent species (EP and P) to account for differences in AMC fluorescence whilst in complex with PaPepA versus free in solution. Scaling factors were different across STO and MTO experiments as both were carried out using different detector voltages.
The model that best fitted acquired data was as below, where F is metal free enzyme, E1 is PaPepA with one Mn2+ ion, E is PepA with two Mn2+ ions, S is Leu- […]
For fitting, k1 and k-1 ratios were constrained (linked) based KD for Mn2+ binding as measured by ITC (12nM). Initially, k2 and k-2 were allowed to vary without constraints, and values best fitted as well as Fitspace lower and upper boundaries are reported in Table 2. The value for k1 was best fitted as diffusion limited, and therefore was fixed in further fitting cycles. The best fitted value for k-2 was high and unconstrained, and therefore also fixed at 1000 s-1 for further fitting cycles. k3, k-3, k4, and k5 were not constrained. Multiple iterations of fitting were performed, and best fit values recorded. k1, k2, k3, k-3, k4, and k5 were evaluated using FitSpace Explorer to generate confidence intervals for each of these rate constants. […]

[2] = molecular target: T1, PaPepA; assay: Solvent kinetic isotope effects; assay type: biochemical; design: GG stays after cleavage) (N); made in house; host or cells: E. coli BL21(DE3); conditions: H2O vs 80% D2O, metal varied, Leu-pNA fixed, pH 8.0
Experimental: SKIEs were determined by plotting saturation curves in H2O or 80% D2O. […] Differences between reaction rates under initial velocity conditions were measured varying the concentration of either Leu-pNA or Mn^2+, while keeping the other component constant and in excess (at least 5× the value of KM or KACT, Scheme 2). Experiments were performed at pH 8.0 (100 mM HEPES, with 50 mM KCl). For proton inventory studies, D2O was varied from 0 to 80% in 10% increments. All proton inventory studies were carried out on the same day by using the same enzyme stock.
When calculating SKIEs, kcat and KM were obtained from the Michaelis–Menten curves in H2O. The 80% D2O Michaelis–Menten curve was fit to the following equation: [drawing 2] 2 where Fi is the fraction D2O, and EV/K and EV are the isotope effects −1 on kcat/KM and kcat, respectively.

[3] = multiple turnover, 50 μM Leu-AMC, […] PaPepA

T1 sequence (Q02RY8 whole entry): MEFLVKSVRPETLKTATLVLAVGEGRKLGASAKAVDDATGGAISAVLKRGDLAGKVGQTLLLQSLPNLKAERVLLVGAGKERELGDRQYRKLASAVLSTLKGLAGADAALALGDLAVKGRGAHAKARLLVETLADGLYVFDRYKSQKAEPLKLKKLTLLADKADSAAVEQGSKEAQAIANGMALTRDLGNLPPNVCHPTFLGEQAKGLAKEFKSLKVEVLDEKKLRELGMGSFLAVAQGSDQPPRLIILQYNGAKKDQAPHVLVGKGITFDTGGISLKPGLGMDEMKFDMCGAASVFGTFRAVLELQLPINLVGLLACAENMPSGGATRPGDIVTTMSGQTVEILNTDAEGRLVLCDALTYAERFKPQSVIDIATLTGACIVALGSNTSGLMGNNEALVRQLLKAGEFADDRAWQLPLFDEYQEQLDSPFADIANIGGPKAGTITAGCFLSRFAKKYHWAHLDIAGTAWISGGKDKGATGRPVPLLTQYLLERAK

[Mn+2] [Mn^2+]
k1, best-fitted value ([1]; F + Mn = E1, global fit of MTO and STO data): 1000 ± 53 μM^–1 s^–1
molar excess of metal over PaPepA at half maximal rate [1, 3]: 24 fold
molar excess of metal over PaPepA at plateau [1, 3]: 300 fold
^D2Okcat [2]: 3.9 ± 0.1
^D2Okcat/KACT [2]: 1.9 ± 0.2
